For one data set, the system named is hog liver esterase. The class given is biochemical. Conditions: pig, 5 µM, pH 8. On the procedure:
(§1) The lack of spectroscopic distinction between such esters and their hydrolysis products recommended a chromatographic analysis of the process. Referring to FIG. 3, a mixture of Compound 7 (5 uM) and the monoclonal antibody from hybridoma P3 6D4 (0.1 uM) in phosphate buffer (50 mM, pH 8.0) was analyzed over time by high performance liquid chromatography (HPLC). The accelerated hydrolysis of the ester was apparent from the decrease of its peak and the concurrent increase in two new peaks that correspond with the expected products. Under these conditions, the ester is completely consumed in 60-80 minutes during which time the background rate accounts for about 12 to 16 percent hydrolysis. The chromatographic profile is the same as that produced by treatment with hog liver esterase.
(§2) *Hydrolysis of carboxylic esters by monoclonal antibody (from hybridoma P
(§3) 6D4) and by hog liver esterase (Sigma Chemical Co., St. Louis, MO, EC
(§4) 3.1.1.1) determined by HPLC on an analytical RPC18 column (Vydac 218TP54)
(§5) with isocratic elution [acetonitrile: water plus 0.1 percent
(§6) trifluoroacetic acid; (35:65)] at a flow rate of 1.0 ml/min and the
(§7) detector set at 245 nm. The initial substrate concentration was 5
(§8) micromolar and that the internal standard (acetophenone) was 10 microm
(§9) olar in 50 mM phosphate buffer at pH 8.0. The retention times (minutes)
(§10) were as follows: acetophenone, 5.0; Compound 7, 8.3; Compound 8, 6.7;
(§11) Compound 9, 4.1; Compound 10, 11.1 (40 percent acetonitrile elution);
(§12) Compound 11, 8.2. The antibody concentration was 15 micrograms/ml (0.1
(§13) micromolar) and that of esterase was 5.5 micrograms/ml. The reaction
(§14) mixtures were kept at 25 degrees C. and aliquots were analyzed at
(§15) intervals of 2 to 20 minutes. Three or more determinations were used to
(§16) plot a curve from which the halflife of the reaction is estimated (see

Data set [1] has as its system monoclonal receptor P3 6D4. In words: Stoichiometric transacylation reaction of monoclonal receptor P3 6D4 with coumarin ester Compound 5 (fluorescence) and its inhibition/inactivation. The class given is biochemical, mouse. On the procedure: A Perkin-Elmer LS-5 fluorescence spectrometer was operated at a fixed wavelength, using 355 nanometers (nm) for excitation and measuring the emission at 455 nm. A stock solution of the coumarin ester 5 was prepared in dioxane and was diluted to the desired concentrations in Tris-HCl (50 mM, pH 7) or sodium phosphate (50 mM, pH 4-9).
Reactions were run at 23 degrees C and were initiated by the addition of an aliquot of antibody solution (1 mg/ml) to substrate solutions to provide a final protein concentration of 100 nM. Final fluorescence values were determined by hydrolysis of the substrate with pig liver esterase. The observed reaction rate was corrected for spontaneous hydrolysis. Reaction kinetics were studied by measuring initial rates under pseudo-first order conditions. Active protein concentration was extrapolated from fluorescence values at the end of the reaction. The kinetic parameters were obtained by fitting the data to a hyperbolic curve and from double reciprocal plots. Inhibition constants were determined from the Lineweaver-Burk plot data with at least five inhibitor concentrations. All the data were studied by a least squares analysis.
Antibody preparations were inactivated without introducing fluorescent products by the addition of the activated ester (Compound 8) in dioxane to a solution of the IgG (5 mg/ml) in Tris-HCl (50 mM, pH 6.5) at a ratio of 5 moles of the ester (Compound 8) per mole IgG.
Protein modification was performed in an analogous manner, by the addition of a dioxane solution of the reagent at a known concentration to the antibody. The solution was incubated for 30 minutes before filtration through Sephadex G-25. The activity remaining was compared to control samples. Aliquots of IgG (5 mg/ml) inactivated with the ester (Compound 8) were diluted with four volumes of phosphate buffer (50 mM, pH 4-9, at intervals of 1 pH unit). Any pH change was recorded, and the sample was stored at 4 degrees C for 24 hours.
Initially, the ester was used at a concentration that was about four-fold greater than that of the protein, and the mixture was incubated at pH 7.2 for 10 minutes. Any change in fluorescence above background was noted.
The termination of the reaction is noted by the return of the rate of fluorescence increase to the background level.

In data set [2] the test system is monoclonal antibody P3 6D4. Description: Ester hydrolysis by monoclonal antibody P3 6D4, HPLC. Particulars: pH 8.0. The class given is biochemical, mouse. On the procedure: FIG. 3 illustrates the rate of hydrolysis of a carboxylic ester (Compound 7) determined by HPLC under the conditions described in Table 1 (50 mM phosphate buffer at pH 8.0 and 23 degrees C). ( ) Uncatalyzed (background)rate of hydrolysis. (.quadrature.) Effect of 0.5 micromolar non-specific monoclonal IgG. ( ) 0.1 Micromolar anti-Compound 4 monoclonal antibody from hybridoma P3 6D4. The superimposed curve represents a theoretical exponential decay which fits the data points.
In particular, an exemplary monoclonal receptor was produced by the standard hybridoma technology of Kohler et al., Nature, 256, 495 (1975). Specifically, female 129G1X^+ mice were immunized by intraperitoneal injection with an inoculum of 100 micrograms of conjugate (e.g., Compound 4i bound to KLH) in 300 microliters of a 1:1 mixture of phosphate buffered saline (PBS) pH 7.4 and complete Freund's adjuvant. Two weeks later, the mice were again injected in a like manner with 50 micrograms of the foregoing conjugate in 300 microliters of a 1:1 mixture of PBS (pH 7.4) and 10 mg/ml alum. After an additional eight weeks, the mice were immunized intravenously with 50 micrograms of the conjugate in 200 microliters of PBS (pH 7.4). The spleens were removed from the mice 4 days later, and the spleen cells were fused to myeloma cells.
as §1, §2, §3, §4, §5, §6, §7, §8, §9, §10, §11, §12, §13, §14, §15, §16

“Also recorded” adds a separate entry of the source.

With `O=C(Cc1ccc(NC(=O)C(F)(F)F)cc1)Oc1ccccc1` [Compound 10], in the data set on hog liver esterase, the “t1/2 Esterase” value is given as 2 min. The “stoichiometric antibody reaction (release of alcohol)” value in data set [1] is “Neither is the stoichiometric reaction apparent”. For the same compound, the “accelerated hydrolysis by P3 6D4 (substrate acceptance)” value in data set [2] is listed as “no effect on the hydrolytic rate; also recorded: not catalyzed”.
